Experimental data from paper PMC3563528, “Ultrashort Cationic Lipopeptides and Lipopeptoids Selectively Induce Cytokine Production in Macrophages” (PLoS ONE, 2013).
“And” between values parts separate entries of the source, which are not always exact repeats. Identical values can stand only once. Marks after values point to notes of the source that are not given here.

Key:
MSSE 81388 CANWARD 2008 = test system: MSSE 81388 CANWARD 2008; design: method as in earlier work; settings: data from previous studies converted into µM; cited from earlier work
S.aureus ATCC 29213 = test system: S.aureus ATCC 29213; design: method as in earlier work; settings: data from previous studies converted into µM; cited from earlier work
[1] = test system: MRSE (CZ >32) CAN-ICU 61589; design: method as in earlier work; settings: data from previous studies converted into µM; cited from earlier work
MRSA ATCC 33592 = test system: MRSA ATCC 33592; design: method as in earlier work; settings: data from previous studies converted into µM; cited from earlier work
[2] = test system: human macrophage-like THP-1 cells; experiment: IL-8 production by ELISA in TC supernatants; assay type: cell-based; settings: 24 h exposure; for IL-8 induction (in words): concentrations tested up to 100 µM; for IL-8 production: mean ± sem
Protocol: (§1) Prior to testing, human monocytic THP-1 cells were differentiated to plastic-adherent macrophage-like THP-1 cells as previously described. The cells were rested for twenty-four hours, then exposed to the amphiphiles of interest for twenty-four hours. Cell free TC supernatants were monitored for the production of chemokines Groα and IL-8 by ELISA as previously described, [34]. The constitutive background level of chemokine Groα was 6.6±1.8 pg/ml, and that of IL-8 was 1.7±0.16 ng/ml. Encouragingly, the majority of compounds were strong inducers of both IL-8 and Groα and increased chemokine levels above background (Figure 2). […] The three amphiphiles with a LysLysLys peptide sequence and lipid tail at least sixteen carbons in length, 5–7, were especially strong inducers of IL-8, increasing the concentration to 5–8 ng/mL (p<0.05) above control at 10 µM of lipopeptide, and up to 13 ng/mL (p<0.01) above control at 50 µM (Figure 2). These amphiphiles compared favourably to LL-37 (1.3 ng/mL of IL-8 above control at 10 µM), despite their brief peptide sequence. […] All lipopeptides with lipid tails shorter than sixteen carbons were unable to induce either IL-8 or Groα at concentrations up to 100 µM (Figure 2, Figure S1).
(§2) ELISA results were obtained from two biological replicates with two technical replicates each and statistical analyses was performed using Student paired t-test. Error bars in the graphs represents standard error of the mean, and a p-value of less that 0.05 was considered to be statistically significant.

[3] = test system: human macrophage-like THP-1 cells; experiment: Groα production by ELISA in TC supernatants; assay type: cell-based; settings: 24 h exposure; for Groα induction (in words): concentrations tested up to 100 µM
Protocol: as §1, §2

[4] = test system: human macrophage-like THP-1 cells; experiment: IL-1β production by ELISA in TC supernatants; assay type: cell-based; settings: 24 h exposure
Protocol: Figure 3 IL-1β production. Human macrophage-like THP-1 cells were exposed to amphiphiles 4–11 and 14–21, for twenty-four hours. TC supernatants were monitored for IL-1β by ELISA, with results shown in pg/mL. Studies were performed in two independent biological replicates with two technical replicate each, with the data here presented as the mean plus sem. Inset: Expanded results for the negative control and amphiphiles 4–7 at 5 µM and 10 µM.
as §2

[5] = test system: human macrophage-like THP-1 cells; experiment: TNF-α production by ELISA in TC supernatants; assay type: cell-based; settings: any concentration tested, at or below 100 µM, 24 h exposure
Protocol: as §2
Supplementary file pone.0054280.s002.tiff: Figure S2 TNF-α production by human macrophage-like THP-1 cells following incubation with amphiphiles 1–21. TC supernatants were monitored for cytokine production via ELISA, and results are reported in pg/mL. All studies were performed in two independent biological replicates with two technical replicates each. (TIFF) Click here for additional data file.

Gram positive strains = settings: in vitro; cited from earlier work
Excerpt: We have shown that ultrashort lipopeptides and lipopeptoids are able to induce selective cytokine production in human macrophages, despite little structural similarity to any known host defence peptide or CAMP.

[6] = 50 µM amphiphile, two biological replicates with two technical replicates each
[7] = 50 µM amphiphile, mean ± sem, two biological replicates with two technical replicates each

| Substance | Antimicrobial activity (MIC) (MSSE 81388 CANWARD 2008) [µM] | Antimicrobial activity (MIC) (S.aureus ATCC 29213) | Antimicrobial activity (MIC) [1] [µM] | Antimicrobial activity (MIC) (MRSA ATCC 33592) [µM] | IL-8 induction (in words) [2] | Groα induction (in words) [3] | further results |
| --- | --- | --- | --- | --- | --- | --- | --- |
| C11-LysLysLys-NH2 [compound 4] | 281 | 561^a μM | 281 | >561 |  |  |  |
| C11-NLysGlyNLys-NH2 [compound 12] |  |  |  |  | inactive | inactive |  |
| C16-LysGlyLys-NH2 [compound 1] |  |  |  |  |  |  | IL-8 above control [2, 6]: 0.2 ng/mL |
| C16-LysLysLys-NH2 [compound 5] | <0.25 | 8.1 µM | <0.25 | 4.1 |  |  | IL-8 production [2, 6]: 7.7 ± 0.6 ng/mL |
| C16-NLysGlyNLys-NH2 [compound 13] |  |  |  |  | inactive | inactive |  |
| C16OH-HarHarHar -NH2 [compound 10] |  |  |  |  |  |  | IL-8 production [2, 6]: up to 10 ng/mL |
| C16OH-LysGlyLys-NH2 [compound 2] |  |  |  |  | failed to significantly increase IL-8 production |  |  |
| C16OH-LysLysLys-NH2 [compound 6] | 128 | 128 µM | 128 | 128 |  |  | IL-8 production [2, 6]: 12.5 ± 0.5 ng/mL; Groα production [3, 7]: 670 pg/mL |
| C16OH-NHarNHarNHar-NH2 [compound 20] |  |  |  |  | moderate inducers | moderate inducers | IL-1β induction (in words) [4]: did not induce; TNF-α induction (in words) [5]: did not induce |
| C16OH-NLysNLysNLys-NH2 [compound 16] |  |  |  |  | moderate inducers | moderate inducers | IL-1β induction (in words) [4]: did not induce; TNF-α induction (in words) [5]: did not induce |
| C20-HarHarHar-NH2 [compound 11] |  |  |  |  |  |  | IL-8 production [2, 6]: up to 10 ng/mL |
| C20-LysGlyLys-NH2 [compound 3] |  |  |  |  | failed to significantly increase IL-8 production |  |  |
| C20-LysLysLys-NH2 [compound 7] | 7.7 | 7.7 µM | 7.7 | 7.7 |  |  | Increase of IL-1β concentration ([4]; moving from 10 µM to 50 µM): over forty-fold |
| C20-NHarNHarNHar-NH2 [compound 21] | 6.9 | 6.9 µM | 6.9 | 14 | moderate inducer | strongest inducer | IL-8 production ([2]; 50 and 100 µM amphiphile): 6 ± 0.8 ng/mL; MIC (Gram positive strains): ≤ 16 µg/mL; Groα production [3, 7]: 996 ± 4 pg/mL and 1000 pg/mL; Groα production ([3]; 100 µM amphiphile): 200 pg/mL |
| LLGDFFRKSKEKIGKEFKRIVQRIKDFLRNLVPRTES-OH [LL-37, human cathelicidin LL-37, natural host defence peptide, positive control, reference compound] |  |  |  |  |  |  | IL-8 above control ([2]; 10 µM amphiphile, two biological replicates with two technical replicates each): 1.3 ng/mL; Groα production ([3]; 2.5 µM): 800 pg/mL |
